Test results published in patent US7183061B2, “Method of expressing Heliothis ecdysone receptor fusion protein” (Syngenta Limited, priority 1996, dated 2007).

How the values were obtained:
[1] = target: T1, glucocorticoid/Drosophila ecdysone chimeric receptor (UniProt P04150+P34021); assay: Maize protoplast GUS reporter assay with pMF6GREcRS and p221.9GRE6; type: cell-based; conditions: maize protoplasts, reporter plus effector, concentration not given
T1 construct: expressed in transfected cells; host or cells: maize suspension-culture protoplasts
T1 sequence (P04150+P34021 with tags, fused parts or gaps): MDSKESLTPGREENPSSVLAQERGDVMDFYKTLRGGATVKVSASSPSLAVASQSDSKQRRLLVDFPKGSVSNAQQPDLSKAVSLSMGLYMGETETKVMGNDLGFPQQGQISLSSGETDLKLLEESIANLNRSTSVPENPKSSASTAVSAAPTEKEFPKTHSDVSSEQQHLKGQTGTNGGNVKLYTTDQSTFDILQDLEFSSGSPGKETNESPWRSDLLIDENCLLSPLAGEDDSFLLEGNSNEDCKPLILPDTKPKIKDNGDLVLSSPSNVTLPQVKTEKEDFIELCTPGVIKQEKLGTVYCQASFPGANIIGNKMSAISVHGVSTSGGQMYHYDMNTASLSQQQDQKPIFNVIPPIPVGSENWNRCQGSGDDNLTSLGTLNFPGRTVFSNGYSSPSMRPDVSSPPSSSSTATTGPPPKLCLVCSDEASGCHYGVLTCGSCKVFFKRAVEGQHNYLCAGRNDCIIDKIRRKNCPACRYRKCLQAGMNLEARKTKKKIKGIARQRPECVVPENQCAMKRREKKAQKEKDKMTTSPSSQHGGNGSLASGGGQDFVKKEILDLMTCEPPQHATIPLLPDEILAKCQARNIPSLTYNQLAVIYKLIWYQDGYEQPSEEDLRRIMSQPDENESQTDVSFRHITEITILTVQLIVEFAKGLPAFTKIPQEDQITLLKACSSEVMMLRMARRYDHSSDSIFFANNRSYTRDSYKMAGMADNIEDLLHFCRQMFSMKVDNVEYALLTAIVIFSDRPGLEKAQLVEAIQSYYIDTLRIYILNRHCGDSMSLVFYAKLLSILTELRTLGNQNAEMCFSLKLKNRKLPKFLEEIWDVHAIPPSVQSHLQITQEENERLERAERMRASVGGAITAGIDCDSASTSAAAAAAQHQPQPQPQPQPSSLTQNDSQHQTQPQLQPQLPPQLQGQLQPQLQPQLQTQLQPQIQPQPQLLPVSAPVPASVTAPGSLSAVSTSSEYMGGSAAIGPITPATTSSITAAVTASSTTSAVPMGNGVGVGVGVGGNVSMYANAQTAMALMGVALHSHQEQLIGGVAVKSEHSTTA

[2] = tested on: glucocorticoid receptor transactivating and DNA binding domains fused to the ecdysone receptor hinge and ligand binding domains; conditions: mammalian cells; cited from earlier work

Row | Compound | chemical induced reporter gene activity / induced levels of expression [1] | activity of chimeric receptor as homodimer [2]
1 | CC(C)(C)N(NC(=O)c1ccccc1)C(=O)c1ccccc1 [RH5849, 1,2-dibenzoyl, 1-tert-butyl hydrazide] | no chemical induced reporter gene activity | 
2 | CC(C)(O)CC[C@@H](O)[C@](C)(O)[C@H]1CC[C@@]2(O)C3=CC(=O)[C@@H]4C[C@@H](O)[C@@H](O)C[C@]4(C)[C@H]3CC[C@]12C [20-hydroxyecdysone] |  | not responsive
